Source: patent publication US8268836B2, “Compound useful as a c-Met inhibitor” (Eli Lilly and Company, priority 2010, dated 2012)
Counter-ions that a name gives are not always drawn.

Experiments:
[1] = target: T1, Met (pY1349) in NCl-H460 cells (Homo sapiens, UniProt P08581); assay: HGF stimulated Met (pY1349) NCI-H460 cell-based ELISA; conditions: HGF 100 ng/mL stimulated NCI-H460 cells; read-out: relative IC50, H460 assay (c-Met phosphorylation)
T1 construct: host or cells: NCI-H460
Method: NCl—H460 cells (purchased from ATCC) are cultured in RPMI 1640 media (Invitrogen) supplemented with 10% Fetal Bovine Serum (FBS) and plated (prior to becoming 70% confluent) in 96-well flat-bottom plates at a density of 20,000 cells per well in 80 μL volume. The cells are then incubated overnight in a cell culture incubator (5% CO2, 95% Relative Humidity (RH) and 37° C.) and allowed to attach to the plate. The following morning the cells are washed with 2 volumes of a Reduced Serum Media (RSM, RPMI 1640 media supplemented with 0.5% FBS). After removal of the last wash, 80 μL of RSM is added to each well of the cell plates. The cell plates are incubated for 2.5 h in a cell culture incubator, and then dosed with compounds. Compound inhibitors are first solubilized at 10 mM in 100% DMSO and then diluted to 100 μM with 2% DMSO RSM. […] After 1 h capture (at RT) the MSD® plate wells are washed with 1× Tris Wash Buffer, and then 150 μL of 1× Read Buffer T (with surfactant, MSD®) is added. Immediately after the addition of the Read Buffer, the plates are analyzed with a SECTOR 6000 MSD® Imager plate reader. Relative IC50 values are determined using MSD activity units by calculating percent inhibition with respect to on-plate “MIN” and “MAX” controls and then fitting the percent inhibition values and ten-point dose response data to a four-parameter logistic equation.

cMet enzyme = cMet enzyme (Homo sapiens, UniProt P08581); assay: cMet Homogeneous Time Resolved Fluorescence (HTRF) in vitro assay; type: biochemical; conditions: relative IC50; read-out: c-Met IC50 (HTRF)
cMet enzyme, sequence (P08581 25-1390): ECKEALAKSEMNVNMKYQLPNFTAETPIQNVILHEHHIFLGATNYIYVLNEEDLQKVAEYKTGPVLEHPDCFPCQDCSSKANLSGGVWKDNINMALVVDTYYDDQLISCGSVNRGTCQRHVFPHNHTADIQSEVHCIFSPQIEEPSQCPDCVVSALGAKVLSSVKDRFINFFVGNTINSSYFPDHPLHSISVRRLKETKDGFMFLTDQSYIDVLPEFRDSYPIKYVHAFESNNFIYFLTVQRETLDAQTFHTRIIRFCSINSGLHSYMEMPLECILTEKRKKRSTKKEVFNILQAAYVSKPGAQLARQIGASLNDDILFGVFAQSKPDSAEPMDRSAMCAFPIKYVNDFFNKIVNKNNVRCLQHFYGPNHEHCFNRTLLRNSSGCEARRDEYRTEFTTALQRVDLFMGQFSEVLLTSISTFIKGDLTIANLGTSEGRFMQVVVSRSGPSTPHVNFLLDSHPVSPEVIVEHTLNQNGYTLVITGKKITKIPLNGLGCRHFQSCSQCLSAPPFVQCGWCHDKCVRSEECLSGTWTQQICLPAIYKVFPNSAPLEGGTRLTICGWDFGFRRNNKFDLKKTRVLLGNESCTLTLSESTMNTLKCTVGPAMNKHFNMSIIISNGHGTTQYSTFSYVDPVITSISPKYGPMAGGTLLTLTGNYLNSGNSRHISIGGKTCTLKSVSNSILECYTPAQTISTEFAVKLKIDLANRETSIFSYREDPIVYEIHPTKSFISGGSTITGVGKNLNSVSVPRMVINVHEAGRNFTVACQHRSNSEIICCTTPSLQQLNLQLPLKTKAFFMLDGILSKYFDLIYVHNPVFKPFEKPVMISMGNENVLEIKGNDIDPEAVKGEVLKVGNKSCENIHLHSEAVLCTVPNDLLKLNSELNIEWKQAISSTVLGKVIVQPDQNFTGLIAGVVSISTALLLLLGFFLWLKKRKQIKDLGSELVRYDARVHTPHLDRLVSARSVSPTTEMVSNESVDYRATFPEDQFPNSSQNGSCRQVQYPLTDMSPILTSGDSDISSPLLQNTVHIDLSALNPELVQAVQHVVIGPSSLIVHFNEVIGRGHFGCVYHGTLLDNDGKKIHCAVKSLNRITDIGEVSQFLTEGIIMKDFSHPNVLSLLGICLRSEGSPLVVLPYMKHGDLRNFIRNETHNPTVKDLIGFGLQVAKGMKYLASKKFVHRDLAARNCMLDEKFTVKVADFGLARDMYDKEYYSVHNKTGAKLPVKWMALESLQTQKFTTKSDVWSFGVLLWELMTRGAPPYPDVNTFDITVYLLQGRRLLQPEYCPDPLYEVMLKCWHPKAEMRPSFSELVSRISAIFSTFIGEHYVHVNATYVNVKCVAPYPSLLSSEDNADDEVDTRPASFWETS
Source text: This assay is based on HTRF technology and it is used to detect the phosphorylation of biotin labeled tyrosine peptide by cMet enzyme. After the reaction is completed, XL665 labeled streptavidin is used to recognize the biotin unit and a Europium (Eu3+) labeled anti-phospho-tyrosine antibody is used to recognize the phosphorylated tyrosine. The detection process relies on the transfer of energy between the excited Eu3+ and the XL665 labeled streptavidin. The aim of this protocol is to calculate the ability of test compounds to inhibit the phosphorylation of the product of this reaction and calculate their relative IC50 values.
A reference compound, if desired, may be prepared as a 1 mM stock solution in 100% DMSO and test compounds are prepared as 10 mM stock solutions in 100% DMSO. 1 mM reference compound and 10 mM test compounds are pre-diluted to 8 μM and 80 μM 10% DMSO solutions in a 96-well dilution plate. Compounds are serially diluted (1:3) using Tecan Freedom EVO 200 and 10-point dilution curves are generated for each of the compounds tested. 10 μL of serially diluted compounds are transferred to a 96-well assay plate using Temo (Tecan). […] The assay plate is incubated at RT for 60 min before reading the fluorescence signals at 620 nm emission and 665 nm […] in a Victor3 instrument (PerkinElmer Corporation). […]

T1 sequence (P08581 25-1390): as above

Compound: Cn1cc(-c2ccc3nnc(Sc4ccc5nn(C)cc5c4)n3n2)cn1 [mesylate salt form of example 1]
- IC50 [1]: 0.038 µM
- IC50 (cMet enzyme): 0.025 µM
